Data as given in publication PMC8955307, “Nucleobase-Derived Nitrones: Synthesis and Antioxidant and Neuroprotective Activities in an In Vitro Model of Ischemia–Reperfusion” (International Journal of Molecular Sciences, 2022).
Several values for one entry are separate records, joined by “and”; a condition that tells them apart may be missing. Equal values may be shown once. Read-outs that look alike come from different tables or passages of the source.

Columns and labels:
[1] = Hydroxyl radical scavenging (competition with DMSO); conditions: tested at 100 µM
Experimental: The competition of the tested nitrones (100 µM) with DMSO (33 mM) in the phosphate buffer (50 mM), pH 7.4, was used. The hydroxyl radicals were generated by the Fe^3+/ascorbic acid system (EDTA 0.1 mM, Fe^3+ 167 µM, ascorbic acid 10 mM), and the samples were incubated at 37 °C/30 min. A 17% w/v solution of CCl3CO2H was used to stop the radical propagation. The percentage scavenging activity was compared to Trolox used as a reference.

[2] = ABTS radical cation decolorization assay; conditions: tested at 100 µM
Experimental: Approximately 10 µL of the tested compounds in DMSO (100 µM final concentration) were mixed with 200 µL of ABTS∙^+ (100 mM) and 790 µL absolute ethanol. The absorbance value was recorded 1 min after mixing at 734 nm and compared to Trolox.

[3] = tested on: SH-SY5Y human neuroblastoma cells; experiment: Neuroprotection: cell viability (XTT metabolic activity) after OGD (4 h) followed by OGR (24 h) (IR); type: cell-based; conditions: OGD 4 h + OGR 24 h (IR); for Emax: 24 h, read-out: Maximal Activity mean±SEM (neuroprotection); for EC50: compounds 0.01 μM to 1 mM, read-out: Neuroprotection EC50 ± SEM
Experimental: Cultures of human neuroblastoma cells from line SH-SY5Y were performed in flasks containing Dulbecco’s: Ham’s F12, 1:1 [v/v] composed of 0.5 mM sodium pyruvate, 2.5 mM GlutaMAX™; GIBCO, Life Technologies, Madrid (Spain), 3.15 mg/mL glucose, 1% Antibiotic-Antimycotic (100 ui/mL penicillin, […] streptomycin, and 0.25 mg amphotericin B), 1% Gentamicin 15 mg/mL (Sigma-Aldrich, Madrid, Spain) and 10% Fetal Calf Serum (FCS) (Gibco; Life Technologies, Madrid, Spain) as as described. For each experiment, neuroblastoma cells were digested partially with 0.25% trypsin-EDTA and seeded in plates of 96 or 48 wells with a density of 0.5–1 or 2–2.5 × 10^5 cells/well, respectively, depending on the assay. At 80% confluence of the seeded cells, medium was renewed adding 0.1–1000 µM of the compounds tested.
(§1) To induce experimental ischemia, and the sub-consequent cellular damage, the neuroblastoma cultures underwent OGD for 3–4 h, maintained in a glucose-free Dulbecco’s medium inside an anaerobic chamber in the presence of a gas mixture of 95% N2/5% CO2 and humidified at 37 °C at a constant pressure of 0.15 bar. After the OGD period (4 h), medium was substituted by oxygenated 10% FCS-containing medium, and cells were incubated in conditions of normoxia for 24 h to recovery (R24h). The compounds used in the neuroprotection studies: nitrones 9a–i, α-phenyl-N-tert-butyl nitrone (PBN) and N-acetyl-L-cysteine (NAC) (0.01 μM−1000 µM), were added at the beginning of R24h as described. Concurrently, controls in the absence of the OGD procedure were performed by maintaining these cells with Dulbecco’s medium including glucose for 3–4 h in an incubator in conditions of normoxia during the OGD period; thereafter, the medium was changed, and the cells (in the presence or absence of the different study compounds) were returned to the incubator for 24 h of recovery, as described. In addition, experiments including the same amounts of vehicle (final concentration < 1% dimethyl sulfoxide) were performed, serving as controls. The effects of nitrones 9a–g were analyzed three-five times independently using different culture batches, and each experiment was carried out in triplicate.
Cell viability measurements were carried out in human neuroblastoma cells SHSY5Y using 96-well culture plates, containing about 0.5–1 × 10^5 cells/well, after the OGD-R24h or control treatment including 0.01–1000 µM of the different testing compounds (nitrones 9a–g, PBN, and NAC), utilizing the Cell Proliferation Kit II (XTT), Sigma Aldrich, Madrid, Spain, which determines the culture’s metabolic capacity, as described in [21, 22]. XTT solution (0.3 mg/mL final concentration) was added to the seeded cells, incubated for 2 h at 37 °C with 5% CO2 and 95% air (v/v), and a spectrophotometer reader (Biotek Power-Wave XS microplate-reader (BioTek Instruments, Madrid, Spain) was used to register the absorbance at 450 nm (reference 650 nm) of the soluble formazan product generated. 100% viability was set by control normoxic cells treated with medium only, and control cells were added 0.001–1% DMSO in every assay.

[4] = tested on: human neuroblastoma SH-SY5Y cells; experiment: Superoxide radical production (DHE fluorescence) after OGD and 3 h OGR (IR); type: cell-based; conditions: OGD + 3 h OGR (IR); for EC50: compounds 0.1 to 1000 μM, read-out: Antioxidant Activity EC50 ± SEM (superoxide production); for Emax: read-out: Maximal Activity mean±SEM (antioxidant)
Experimental: A density of 2–2.5 × 10^5 SHSY5Y cells/well was used to seed in 48-well plates to quantify superioxide anion formation. Firstly, cultured cells were exposed to OGD treatment for 3–4 h or maintained in normoxic conditions (controls). Thereafter, medium was replaced with oxygenated Dulbecco’s: Ham’s F12 medium with glucose, 1% Antibiotic-Antimycotic, 1% Gentamicin and 10% FCS. Cells were incubated in the absence (controls) or presence of indicated concentrations of the compounds of study, at 37 °C for 3 h. […] For every condition, the linear regression of fluorescence data (expressed in arbitrary fluorescence units, AFU) was calculated, and the slopes (a) of the best fitting lines (y = ax) were considered as an index of superoxide production, as described previously.

[5] = tested on: SH-SY5Y human neuroblastoma cells; experiment: Anti-necrotic effect: LDH release after OGD (4 h) and 24 h OGR (IR); type: cell-based; conditions: OGD 4 h + 24 h OGR (IR); for IC50: compounds 0.1 μM to 1 mM, read-out: LDH Release Inhibition IC50 ±SEM; for Emax: read-out: Maximal Inhibition Mean±SEM (LDH release)
Experimental: as §1
Anti-necrotic cell activity was evaluated by culturing SHSY5Y cells in 48-well dishes, in a density of 2 × 10^5 cells/well and treating them as controls or under the OGD-R24h procedure, adding the testing compounds at 0.01–1000 µM (see point 4.2.2.). Media of every well were collected in Eppendorf tubes properly labelled and stored at −20 °C until measurement (samples would be needed to measure extracellular NADH). Afterwards, each well was recharged with a 0.1 M Phosphate Buffer with 0.5% Triton X-100, pH 7.5, in order to scratch the cells from the bottom of the well. After a 13.000 rpm centrifugation, the soluble fractions are collected and labelled (samples would be essential to measure intracellular NADH). Finally, LDH activity was quantified as the degree of absorbance declined at 340, indicating the oxidation of NADH to NAD+ as described. Results are expressed as the LDH activity of the extracellular medium referred to the total LDH activity after cell lysis.

| SMILES | EC50 ([3]; Homo sapiens) [µM] | EC50 ([4]; Homo sapiens) [µM] | EC50 [3] | EC50 [4] [µM] | OH (%) scavenging [1] | ABTS+ (%) [2] [%] | Emax ([3]; Homo sapiens) [%] | Emax ([4]; Homo sapiens) [%] | IC50 ([5]; Homo sapiens) [µM] | Emax ([5]; Homo sapiens) [%] | Maximal Activity mean±SEM (neuroprotection) [3] | Maximal Activity mean±SEM (antioxidant) [4] [%] | Maximal Inhibition Mean±SEM (LDH release) [5] | IC50 [5] |
| --- | --- | --- | --- | --- | --- | --- | --- | --- | --- | --- | --- | --- | --- | --- |
| Cc1cn(C/C=[N+](/C)[O-])c(=O)[nH]c1=O [9b] | 193 ± 36.7 | 0.72 ± 0.16 |  |  | 73% | 14 | 123 ± 8.46 | 100 ± 2.26 | 23.2 ± 2.64 | 122 ± 1.84 |  |  |  |  |
| C/[N+]([O-])=C/Cn1cc(Cl)c(=O)[nH]c1=O [9e] | 165 ± 26.1 | 12.9 ± 1.43 |  |  | 87% | 19 | 99.7 ± 5.98 | 89.3 ± 5.33 | 12 ± 1.71 | 98.6 ± 2.24 |  |  |  |  |
| C/[N+]([O-])=C/Cn1cc(Br)c(=O)[nH]c1=O [9d] | 29.2 ± 7.72 | 46.4 ± 9.49 |  |  | 90% | 12 | 125 ± 8.05 | 114 ± 7.72 | 50.2 ± 8.87 | 120 ± 4.62 |  |  |  |  |
| CC(C)(C)[N+]([O-])=Cc1ccccc1 [PBN, α-phenyl-N-tert-butylnitrone, reference compound] |  |  | 33.5 µM and ~35 µM | 5.86 ± 0.63 | no | 5 |  |  |  |  | 96.93 ±6.97% and ≈ 96% | 93.57±2.94 | 77.51 ±5.75% and ≈ 75% | 5.28 µM and ~5 µM |

Continued by falling EC50 ([3]; Homo sapiens), values first:

| EC50 ([3]; Homo sapiens) [µM] | EC50 ([4]; Homo sapiens) [µM] | EC50 [3] | EC50 [4] [µM] | SMILES | OH (%) scavenging [1] | ABTS+ (%) [2] [%] | Emax ([3]; Homo sapiens) [%] | Emax ([4]; Homo sapiens) [%] | IC50 ([5]; Homo sapiens) [µM] | Emax ([5]; Homo sapiens) [%] | Maximal Activity mean±SEM (neuroprotection) [3] | Maximal Activity mean±SEM (antioxidant) [4] [%] | Maximal Inhibition Mean±SEM (LDH release) [5] | IC50 [5] |
| --- | --- | --- | --- | --- | --- | --- | --- | --- | --- | --- | --- | --- | --- | --- |
| 23.6 ± 4.17 | 1.12 ± 0.13 |  |  | C/[N+]([O-])=C/Cn1cc(Br)c(=O)n(C/C=[N+](/C)[O-])c1=O [9i] | inactive and No | 75 | 110 ± 3.97 | 107 ± 2.72 | 43.1 ± 6.5 | 121 ± 5.82 |  |  |  |  |
| 1.55 ± 0.15 | 1.4 ± 0.66 |  |  | C/[N+]([O-])=C/Cn1cnc2c(N)ncnc21 [9f] | 66% | 6 |  | 106 ± 9.39 | 3.93 ± 0.05 | 129 ± 2.26 |  |  |  |  |
